The subject of experiment [1] is Lassa fever. Conditions: only if administered early (up to six days) in the course of illness; cited from earlier work.
For experiment [2], the system named is SARS coronavirus strain Urbani. The experiment is classed as cell-based, SARS CoV strain Urbani or HK.
Experiment [3] concerns mouse hepatitis virus strain A59. The experiment is classed as cell-based, Mouse hepatitis virus (MHV) strain A59.
The subject of experiment [4] is HIV-1 virion:cell fusion. The note with it: read-out: concentration giving 50% inhibition of HIV-1 virion:cell fusion; cited from earlier work.
Experiment [5] deals with HIV-1. Conditions: 100 mg/day, clinical trial, infected individuals; cited from earlier work.

“Also recorded” adds a separate entry of the source.

Consider `NC(=O)c1ncn([C@@H]2O[C@H](CO)[C@@H](O)[C@H]2O)n1` [ribavirin], for which the “efficacy in the treatment of Lassa fever” value in experiment [1] was “effective”.
As for “AACEVAKNLNESLIDLQELGKYEQYIKW [SEQ ID NO:29]”, the “inhibition of plaque formation by SARS CoV” value (shortened to “inhibition … by SARS CoV”) in experiment [2] is given as “some inhibition”.
For GNHILSLVQNAPYGLYFIHFSW [SEQ IDS NO:22], the “inhibition of plaque formation by MHV” value in experiment [3] was “can inhibit plaque formation by MHV; also recorded: more efficient”.
In the case of GVFVFNGTSWFITQRNFFS [SEQ ID NO:25], the “inhibition … by SARS CoV” value in experiment [2] was “inhibited plaque formation”.
As to “GYFVQDDGEWKFTGSSYYY [SEQ ID NO:23, synthetic peptide from the MHV FIR]”, the “inhibition of plaque formation by MHV” value in experiment [3] is given as “can inhibit plaque formation by MHV”.
On to GYHLMSFPQAAPHGVVFLHVTY [SEQ ID NO:24], for which the “inhibition … by SARS CoV” value in experiment [2] was “inhibited plaque formation”.
With MFPPWSAAAGVPFSLSVQY [SEQ ID NO:26], in experiment [3], the “inhibition of plaque formation by MHV” value is recorded as “some inhibition”.
Consider MYKTPTLKYFGGFNFSQIL [SEQ ID NO:28], for which the “inhibition … by SARS CoV” value in experiment [2] is on record as “some inhibition”.
Turning to “QDAIKKLNESYINLKEVGTYEMYVKW [SEQ ID NO:27, peptide from the carboxyl terminal helix of MHV S]”, the “inhibition of plaque formation by MHV” value in experiment [3] is recorded as “some inhibition”.
In the case of enfuvirtide, the IC50 in experiment [4] was 1.7 nM. Also, in experiment [5], the “reduction in plasma HIV-1 load” value was “approximately 100 fold”.

Values taken from patent US7491793B2 (priority 2003, dated 2009).
